# Test system: 377384-186-R-J1-PDC complex spheroid viability
# Assay: Anticancer human tumor 377384-186-R-J1-PDC patient-derived pancreatic carcinoma cell line growth inhibition [RAS]
# Conditions: for IC50: curve of first compound; for viability, T/C: stronger effect = lower value
# How it was run: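 Multi-cell-type spheroids: tumor cells plus HUVEC endothelial cells and mesenchymal stem cells. RAS-pathway inhibitors were combined with targeted agents, each dosed in half-log steps down from clinical Cmax, or from 10 microM when Cmax was unknown.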
# [1] = second compound 0.000949 µM, first compound 0.0316 µM
# [2] = second compound 0.000949 µM, first compound 0.1 µM
# [3] = second compound 0.000949 µM, first compound 0.316 µM
# [4] = second compound 0.000949 µM, first compound 1 µM
# [5] = second compound 0.000949 µM, first compound 3.16 µM
# [6] = second compound 0.000949 µM, first compound 10 µM
# [7] = second compound 0.003 µM, first compound 0.0316 µM
# [8] = second compound 0.003 µM, first compound 0.1 µM
# [9] = second compound 0.003 µM, first compound 0.316 µM
# [10] = second compound 0.003 µM, first compound 1 µM
# [11] = second compound 0.003 µM, first compound 3.16 µM
# [12] = second compound 0.003 µM, first compound 10 µM
# [13] = second compound 0.00949 µM, first compound 0.0316 µM
# [14] = second compound 0.00949 µM, first compound 0.1 µM
# [15] = second compound 0.00949 µM, first compound 0.316 µM
# [16] = second compound 0.00949 µM, first compound 1 µM
# [17] = second compound 0.00949 µM, first compound 3.16 µM
# [18] = second compound 0.00949 µM, first compound 10 µM
# [19] = second compound 0.03 µM, first compound 0.0316 µM
# [20] = second compound 0.03 µM, first compound 0.1 µM
# [21] = second compound 0.03 µM, first compound 0.316 µM
# [22] = second compound 0.03 µM, first compound 1 µM
# [23] = second compound 0.03 µM, first compound 3.16 µM
# [24] = second compound 0.03 µM, first compound 10 µM
# [25] = second compound 0.0949 µM, first compound 0.0316 µM
# [26] = second compound 0.0949 µM, first compound 0.1 µM
# [27] = second compound 0.0949 µM, first compound 0.316 µM
# [28] = second compound 0.0949 µM, first compound 1 µM
# [29] = second compound 0.0949 µM, first compound 3.16 µM
# [30] = second compound 0.0949 µM, first compound 10 µM
# [31] = second compound 0.3 µM, first compound 0.0316 µM
# [32] = second compound 0.3 µM, first compound 0.1 µM
# [33] = second compound 0.3 µM, first compound 0.316 µM
# [34] = second compound 0.3 µM, first compound 1 µM
# [35] = second compound 0.3 µM, first compound 3.16 µM
# [36] = second compound 0.3 µM, first compound 10 µM
# 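Note: spheroids exposed to compounds for seven days before readout.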
smiles,measurement,setting,value
CC(C)NCC(C(=O)N1CCN(c2ncnc3c2C(C)CC3O)CC1)c1ccc(Cl)cc1 (stereo unspecified) + CCn1c(-c2cccnc2C(C)OC)c2c3cc(ccc31)N1CCOC(CC(NC(=O)C(C(C)C)N(C)C(=O)C3(F)CCN(C(=O)C#CC(C)(C)N(C)C)CC3)C(=O)N3CCCC(N3)C(=O)OCC(C)(C)C2)C1,IC50,second compound 0.000949 µM,3790 nM
same,IC50,second compound 0.003 µM,2770 nM
same,IC50,second compound 0.00949 µM,2770 nM
same,IC50,second compound 0.03 µM,2540 nM
same,IC50,second compound 0.0949 µM,2080 nM
same,IC50,second compound 0.3 µM,2140 nM
same,"viability, T/C",[1],95.4%
same,"viability, T/C",[2],93.3%
same,"viability, T/C",[3],88.2%
same,"viability, T/C",[4],66.9%
same,"viability, T/C",[5],56%
same,"viability, T/C",[6],32.1%
same,"viability, T/C",[7],104%
same,"viability, T/C",[8],106%
same,"viability, T/C",[9],85.1%
same,"viability, T/C",[10],72.2%
same,"viability, T/C",[11],46.9%
same,"viability, T/C",[12],29.4%
same,"viability, T/C",[13],102%
same,"viability, T/C",[14],95.1%
same,"viability, T/C",[15],80.8%
same,"viability, T/C",[16],65.3%
same,"viability, T/C",[17],48.4%
same,"viability, T/C",[18],31%
same,"viability, T/C",[19],100%
same,"viability, T/C",[20],85.1%
same,"viability, T/C",[21],91.4%
same,"viability, T/C",[22],66.8%
same,"viability, T/C",[23],46.2%
same,"viability, T/C",[24],29.3%
same,"viability, T/C",[25],91.2%
same,"viability, T/C",[26],86.9%
same,"viability, T/C",[27],79.2%
same,"viability, T/C",[28],59.6%
same,"viability, T/C",[29],44.8%
same,"viability, T/C",[30],29.3%
same,"viability, T/C",[31],69.4%
same,"viability, T/C",[32],78.7%
same,"viability, T/C",[33],67.2%
same,"viability, T/C",[34],59.8%
same,"viability, T/C",[35],45.3%
same,"viability, T/C",[36],27.5%
CC(Nc1ccc2c(c1)OCCn1cc(N3C(=O)OCC3C(F)F)nc1-2)C(N)=O (stereo unspecified) + CCn1c(-c2cccnc2C(C)OC)c2c3cc(ccc31)N1CCOC(CC(NC(=O)C(C(C)C)N(C)C(=O)C3(F)CCN(C(=O)C#CC(C)(C)N(C)C)CC3)C(=O)N3CCCC(N3)C(=O)OCC(C)(C)C2)C1,IC50,second compound 0.000949 µM,650 nM
same,IC50,second compound 0.003 µM,716 nM
same,IC50,second compound 0.00949 µM,453 nM
same,IC50,second compound 0.03 µM,510 nM
same,IC50,second compound 0.0949 µM,280 nM
same,IC50,second compound 0.3 µM,132 nM
same,"viability, T/C",[1],86.7%
same,"viability, T/C",[2],68.8%
same,"viability, T/C",[3],56.5%
same,"viability, T/C",[4],48%
same,"viability, T/C",[5],34%
same,"viability, T/C",[6],26.5%
same,"viability, T/C",[7],94.1%
same,"viability, T/C",[8],74.7%
same,"viability, T/C",[9],57.7%
same,"viability, T/C",[10],47.2%
same,"viability, T/C",[11],35.6%
same,"viability, T/C",[12],23.1%
same,"viability, T/C",[13],92.5%
same,"viability, T/C",[14],70%
same,"viability, T/C",[15],53.3%
same,"viability, T/C",[16],39.6%
same,"viability, T/C",[17],39.2%
same,"viability, T/C",[18],26.7%
same,"viability, T/C",[19],87.2%
same,"viability, T/C",[20],72.3%
same,"viability, T/C",[21],55.3%
same,"viability, T/C",[22],40.8%
same,"viability, T/C",[23],36.6%
same,"viability, T/C",[24],28.1%
same,"viability, T/C",[25],72.9%
same,"viability, T/C",[26],57.2%
same,"viability, T/C",[27],49.2%
same,"viability, T/C",[28],38.4%
same,"viability, T/C",[29],37.5%
same,"viability, T/C",[30],24.9%
same,"viability, T/C",[31],70.3%
same,"viability, T/C",[32],54.4%
same,"viability, T/C",[33],35.8%
same,"viability, T/C",[34],38%
same,"viability, T/C",[35],30.1%
same,"viability, T/C",[36],25%
O=C(c1ccc(F)c(F)c1Nc1ccc(I)cc1F)N1CC(O)([C@@H]2CCCCN2)C1 + CCn1c(-c2cccnc2C(C)OC)c2c3cc(ccc31)N1CCOC(CC(NC(=O)C(C(C)C)N(C)C(=O)C3(F)CCN(C(=O)C#CC(C)(C)N(C)C)CC3)C(=O)N3CCCC(N3)C(=O)OCC(C)(C)C2)C1,IC50,second compound 0.000949 µM,33.2 nM
same,IC50,second compound 0.003 µM,44.8 nM
same,IC50,second compound 0.00949 µM,28.6 nM
same,IC50,second compound 0.03 µM,36 nM
same,IC50,second compound 0.0949 µM,29.9 nM
same,IC50,second compound 0.3 µM,16.8 nM
same,"viability, T/C","second compound 0.000949 µM, first compound 0.00316 µM",87.5%
same,"viability, T/C","second compound 0.000949 µM, first compound 0.01 µM",85.8%
same,"viability, T/C",[1],49.2%
same,"viability, T/C",[2],17.4%
same,"viability, T/C",[3],1.96%
same,"viability, T/C",[4],1.6%
same,"viability, T/C","second compound 0.003 µM, first compound 0.00316 µM",103%
same,"viability, T/C","second compound 0.003 µM, first compound 0.01 µM",89.2%
same,"viability, T/C",[7],63.1%
same,"viability, T/C",[8],22.7%
same,"viability, T/C",[9],2.13%
same,"viability, T/C",[10],0.43%
same,"viability, T/C","second compound 0.00949 µM, first compound 0.00316 µM",98.8%
same,"viability, T/C","second compound 0.00949 µM, first compound 0.01 µM",75%
same,"viability, T/C",[13],50.3%
same,"viability, T/C",[14],19.1%
same,"viability, T/C",[15],1.75%
same,"viability, T/C",[16],0.87%
same,"viability, T/C","second compound 0.03 µM, first compound 0.00316 µM",96.2%
same,"viability, T/C","second compound 0.03 µM, first compound 0.01 µM",77.8%
same,"viability, T/C",[19],57.3%
same,"viability, T/C",[20],18.9%
same,"viability, T/C",[21],4.23%
same,"viability, T/C",[22],0.57%
same,"viability, T/C","second compound 0.0949 µM, first compound 0.00316 µM",85.5%
same,"viability, T/C","second compound 0.0949 µM, first compound 0.01 µM",77.8%
same,"viability, T/C",[25],47.5%
same,"viability, T/C",[26],17.7%
same,"viability, T/C",[27],1.32%
same,"viability, T/C",[28],0.36%
same,"viability, T/C","second compound 0.3 µM, first compound 0.00316 µM",77.1%
same,"viability, T/C","second compound 0.3 µM, first compound 0.01 µM",60.6%
same,"viability, T/C",[31],36.9%
same,"viability, T/C",[32],10.7%
same,"viability, T/C",[33],0.96%
same,"viability, T/C",[34],0.43%

# From PubChem BioAssay AID2060903 (Molecular Pharmacology Branch, DTP, NCI, 2025)
